Measured values published in patent US8822430B2 (Gilead Sciences, Inc., priority 2009, dated 2014).

Tested on: HCV 1b RLuc cells (dicistronic genotype 1b Con1 replicon)
Test: Renilla luciferase (RLuc)-based HCV replicon reporter assay
Assay type: cell-based, HCV genotype 1b
Conditions: Hepatitis C virus, 72 h, HCV 1b RLuc replicon, 72 hours; read-out: Activity (antiviral potency [EC50])
Description: Antiviral potency (EC50) was determined using a Renilla luciferase (RLuc)-based HCV replicon reporter assay. To perform the assay, HCV 1b RLuc cells (harboring a dicistronic genotype 1b Con1 replicon that encodes a RLuc reporter), or HCV 1a RLuc cells (harboring a dicistronic genotype 1a H77 replicon that encodes a RLuc reporter), were dispensed into 384-well plates. Compounds were re-suspended in DMSO at a concentration of 10 mM and serially diluted in DMSO using an automated pipeting instrument. Serially diluted compounds were mixed with cell culture media and added to the seeded cells. DMSO was used as a negative (solvent) control, and the protease inhibitor ITMN-191 was included at a concentration >100×EC50 as a positive control. 72 hours later, cells were lysed and Renilla luciferase activity quantified as recommended by the manufacturer (Promega-Madison, Wis.). Non-linear regression was performed to calculate EC50 values.
Biological data (antiviral potency [EC50] was determined using a Renilla luciferase (RLuc)-based HCV replicon reporter assay—HCV 1b RLuc) for representative compounds of the invention is provided in the following table. These compounds can be prepared using procedures similar to those described above.

Compound	EC50
CON[C@H](C(=O)N1CCC[C@H]1c1ncc(-c2ccc(-c3ccc4cc(-c5cnc([C@@H]6CCCN6C(=O)[C@@H](NC(=O)OC)C(C)C)[nH]5)ccc4c3)cc2)[nH]1)C(C)C	525 pM
COC(=O)N[C@H](C(=O)N1CC2(CC2)C[C@H]1c1nc(-c2ccc3cc(-c4ccc(-c5cnc([C@@H]6SCCN6C(=O)[C@@H](NC(=O)OC)C6CCOCC6)[nH]5)cc4)ccc3c2)c[nH]1)C(C)C	132 pM
COC(=O)N[C@H](C(=O)N1CCC[C@H]1c1ncc(-c2ccc3cc(-c4ccc(-c5cnc([C@@H]6CCCN6C(=O)[C@@H](Cc6ccccc6)NC(=O)OC)[nH]5)cc4)ccc3c2)[nH]1)C(C)C	858 pM
COC(=O)N[C@H](C(=O)N1CCC[C@H]1c1ncc(-c2ccc(C#Cc3ccc(-c4cnc([C@@H]5CC(F)(F)CN5C(=O)[C@@H](NC(=O)OC)C(C)C)[nH]4)cc3)cc2)[nH]1)C(C)C	9.1 pM
COC(=O)N[C@H](C(=O)N1CCC[C@H]1c1ncc(-c2ccc3cc(-c4ccc(-c5cnc([C@@H]6CCCN6C(=O)[C@H](OC(=O)N(C)C)c6ccccc6)[nH]5)cc4)ccc3c2)[nH]1)C(C)C	8.3 pM
COC(=O)N[C@H](C(=O)N1CCC[C@H]1c1ncc(-c2ccc3cc(-c4ccc(-c5cnc([C@@H]6C[C@@H](Cc7ccccc7)CN6C(=O)[C@@H](NC(=O)OC)C(C)C)[nH]5)cc4)ccc3c2)[nH]1)C(C)C	14 pM
COC(=O)N[C@H](C(=O)N1CCC[C@H]1c1ncc(-c2ccc3c(c2)COc2c-3ccc3cc(-c4cnc([C@@H]5CCCN5C(=O)[C@@H](NC(=O)OC)C(C)C)[nH]4)ccc23)[nH]1)C(C)C	4.4 pM
COC(=O)N[C@H](C(=O)N1CCC[C@H]1c1ncc(-c2ccc3cc(-c4ccc(-c5cnc([C@@H]6CCCN6C(=O)[C@@H](NC(=O)OC)C6CCOCC6)[nH]5)cc4)ccc3c2)[nH]1)C1CCCCC1	11.6 pM
COC(=O)N[C@H](C(=O)N1CCC[C@H]1c1ncc(-c2ccc3c(c2)Sc2ccc(-c4cnc([C@@H]5CCCN5C(=O)[C@@H](NC(=O)OC)C(C)C)[nH]4)cc2S3)[nH]1)C(C)C	5.8 pM
COC(=O)N[C@@H](CCS(C)(=O)=O)C(=O)N1CC2(CC2)C[C@H]1c1ncc(-c2ccc(-c3ccc4cc(-c5cnc([C@@H]6C[C@H](C#N)CN6C(=O)[C@@H](NC(=O)OC)C(C)C)[nH]5)ccc4c3)cc2)[nH]1	40.5 pM
COC(=O)N[C@H](C(=O)N1CCC[C@H]1c1ncc(C#Cc2ccc(-c3cnc([C@@H]4CCCN4C(=O)[C@@H](NC(=O)OC)C(C)C)[nH]3)cc2)[nH]1)C(C)C	139 pM
COC(=O)N[C@H](C(=O)N1C[C@@H](Oc2cnccn2)C[C@H]1c1ncc(-c2ccc(-c3ccc4cc(-c5cnc([C@@H]6CC7(CC7)CN6C(=O)[C@@H](NC(=O)OC)C(C)C)[nH]5)ccc4c3)cc2)[nH]1)C(C)C	14 pM
COC(=O)N[C@H](C(=O)N1CCC[C@H]1c1ncc(-c2ccc3cc(-c4ccc5cc(-c6cnc([C@@H]7[C@H]8CC[C@H](C8)N7C(=O)[C@@H](NC(=O)OC)C(C)C)[nH]6)ccc5c4)ccc3c2)[nH]1)C(C)C	280 pM
COC(=O)N[C@H](C(=O)N1CCC[C@H]1c1ncc(-c2ccc(-c3ccc(-c4ccc5nc([C@@H]6[C@H]7CC[C@H](C7)N6C(=O)[C@@H](NC(=O)OC)C(C)C)[nH]c5c4)cc3)cc2)[nH]1)C(C)C	6 pM
COC(=O)N[C@H](C(=O)N1CC2(CC2)C[C@H]1c1ncc(-c2ccc3cc(-c4ccc(-c5cnc([C@@H]6[C@H]7CC[C@H](C7)N6C(=O)[C@@H](NC(=O)OC)C(C)C)[nH]5)cc4)ccc3c2)[nH]1)C(C)C	6.7 pM
COC(=O)N[C@H](C(=O)N1CCC[C@H]1c1ncc(-c2ccc3cc(-c4ccc(-c5cnc([C@@H]6CCCN6C(=O)[C@H](NC(=O)OC)c6ccsc6)[nH]5)cc4)ccc3c2)[nH]1)C(C)C	15.7 pM
COC(=O)N[C@H](C(=O)N1CCC[C@H]1c1ncc(-c2ccc3c(c2)C(=O)c2cc(-c4cnc([C@@H]5CCCN5C(=O)[C@@H](NC(=O)OC)C(C)C)[nH]4)ccc2-3)[nH]1)C(C)C	18.4 pM
COC(=O)N[C@H](C(=O)N1CCC[C@H]1c1ncc(-c2ccc(-c3ccc(-c4cnc(CN5CCC[C@H](N)C5=O)[nH]4)cc3)cc2)[nH]1)C(C)C	4800 pM
COC(=O)N[C@H](C(=O)N1CCC[C@H]1c1nc2ccc(-c3ccc(-c4ccc(-c5cnc([C@@H]6[C@H]7CC[C@H](C7)N6C(=O)[C@@H](NC(=O)OC)C(C)C)[nH]5)cc4)cc3)cc2[nH]1)C(C)C	21.3 pM
COC(=O)N[C@H](C(=O)N1CCC[C@H]1c1ncc(-c2ccc3c(c2)Cc2cc(-c4cnc([C@@H]5CCCN5C(=O)[C@@H](NC(=O)OC)C(C)C)[nH]4)ccc2-3)[nH]1)C(C)C	13.7 pM
COC(=O)N[C@H](C(=O)N1CCC[C@H]1C(=O)Nc1ccc(-c2ccc(-c3ccc(-c4cnc([C@@H]5CCCN5C(=O)[C@@H](NC(=O)OC)C(C)C)[nH]4)cc3)cc2)cc1)C(C)C	87.5 pM

Compound	EC50
COC(=O)N[C@H](C(=O)N1CCC[C@H]1c1ncc(-c2ccc3c(c2)CCc2cc(-c4ccc5nc([C@@H]6[C@H]7CC[C@H](C7)N6C(=O)[C@@H](NC(=O)OC)C(C)C)[nH]c5c4)ccc2-3)[nH]1)C(C)C	5.4 pM
COC(=O)N[C@H](C(=O)N1CCC[C@H]1c1ncc(-c2ccc(-c3ccc(-c4cnc([C@@H]5CCCN5C(=O)[C@@H](NC(=O)OC)C(C)C)[nH]4)cc3)cc2)[nH]1)C(C)C	71.9 pM
COC(=O)N[C@H](C(=O)N1CCC[C@H]1c1ncc(-c2ccc(-c3ccc(-c4cnc([C@@H]5CC[C@@H]6CC[C@H](NC(=O)OC(C)(C)C)C(=O)N65)[nH]4)cc3)cc2)[nH]1)C(C)C	325 pM
COC(=O)N[C@H](C(=O)N1CCC[C@H]1c1ncc(-c2ccc3c(c2)CCc2cc(-c4ccc5nc([C@@H]6CCCN6C(=O)[C@@H](NC(=O)OC)C(C)C)[nH]c5c4)ccc2-3)[nH]1)C(C)C	3.7 pM
COC(=O)N[C@H](C(=O)N1CCC[C@H]1c1ncc(-c2ccc3cc(-c4ccc(-c5cnc([C@@H]6CCCN6C(=O)[C@@H](NC(=O)OC)C6CCCCC6)[nH]5)cc4)ccc3c2)[nH]1)C(C)C	9.2 pM
COC(=O)N[C@H](C(=O)N1CN(C(=O)OC(C)(C)C)C[C@H]1C(=O)NCC(=O)c1ccc(-c2ccc(-c3cnc([C@@H]4CCCN4C(=O)[C@@H](NC(=O)OC)C(C)C)[nH]3)cc2)cc1)C(C)C	3410 pM
COC(=O)N[C@H](C(=O)N1CCC[C@H]1c1ncc(C#CC#Cc2cnc([C@@H]3CCCN3C(=O)[C@@H](NC(=O)OC)C(C)C)[nH]2)[nH]1)C(C)C	1330 pM
COC(=O)N[C@H](C(=O)N1CCC[C@H]1c1nc2ccc(C#CC#Cc3ccc4nc([C@@H]5CCCN5C(=O)[C@@H](NC(=O)OC)C(C)C)[nH]c4c3)cc2[nH]1)C(C)C	26.1 pM
COC(=O)NC(C(=O)N1CCC[C@H]1c1ncc(-c2ccc(-c3ccc4cc(-c5cnc([C@@H]6CCCN6C(=O)[C@@H](NC(=O)OC)C(C)C)[nH]5)ccc4c3)cc2)[nH]1)c1ccsc1 (stereo partly drawn)	19.7 pM
COC(=O)N[C@H](C(=O)N1CCC[C@H]1c1nc(-c2ccc3c(c2)C(F)(F)c2cc(-c4cnc([C@@H]5CC6(CC6)CN5C(=O)[C@@H](NC(=O)OC)C(C)C)[nH]4)ccc2-3)c[nH]1)C(C)C	12.5 pM
COC(=O)NC(C(=O)N1CCC[C@H]1c1ncc(-c2ccc3cc(-c4ccc(-c5cnc([C@@H]6CCCN6C(=O)[C@@H](NC(=O)OC)C(C)C)[nH]5)cc4)ccc3c2)[nH]1)c1ccccc1 (stereo partly drawn)	9.2 pM
COC(=O)N[C@@H](C)C(=O)N1[C@@H]2CC[C@@H](C2)[C@H]1c1ncc(-c2ccc3c(c2)CCc2cc(-c4cnc([C@@H]5CCCN5C(=O)[C@@H](NC(=O)OC)C(C)C)[nH]4)ccc2-3)[nH]1	12.6 pM
COC(=O)N[C@H](C(=O)N1CCC[C@H]1c1ncc(-c2ccc(-c3ccc(-c4cnc([C@@H]5CN(CC(F)(F)F)CN5C(=O)[C@@H](NC(=O)OC)C(C)C)[nH]4)cc3)cc2)[nH]1)C(C)C	7.4 pM
COC(=O)N[C@H](C(=O)N1CCC[C@H]1C(=O)Nc1ccc(-c2ccc(-c3cnc([C@@H]4CCCN4C(=O)[C@@H](NC(=O)OC)C(C)C)[nH]3)cc2)cc1)C(C)C	124 pM
COC(=O)N[C@H](C(=O)N1CCC(c2ncc(-c3ccc(-c4ccc(-c5cnc([C@@H]6CCCN6C(=O)[C@@H](NC(=O)OC)C(C)C)[nH]5)cc4)cc3)[nH]2)C1)C(C)C (stereo partly drawn)	775 pM
COC(=O)N[C@H](C(=O)N1[C@@H]2CC[C@@H](C2)[C@H]1c1ncc(-c2ccc(-c3ccc4cc(-c5cnc([C@@H]6CC7(CC7)CN6C(=O)[C@@H](NC(=O)OC)C(C)C)[nH]5)ccc4c3)cc2)[nH]1)c1ccccc1	7.1 pM
COC(=O)N[C@H](C(=O)N1CCC[C@H]1C1=NC(=O)C(C)(c2ccc(-c3ccc(-c4cnc([C@@H]5CCCN5C(=O)[C@@H](NC(=O)OC)C(C)C)[nH]4)cc3)cc2)N1)C(C)C (stereo partly drawn)	> 44400 pM
COC(=O)N[C@@H](Cc1ccccc1)C(=O)N1CCC[C@H]1c1ncc(-c2ccc(-c3ccc4cc(-c5cnc([C@@H]6CCCN6C(=O)[C@@H](NC(=O)OC)C(C)C)[nH]5)ccc4c3)cc2)[nH]1	18.1 pM
COC(=O)N[C@H](C(=O)N1CCC[C@H]1c1ncc(C(=O)N2CCN(c3ccc(-c4cnc([C@@H]5CCCN5C(=O)[C@@H](NC(=O)OC)C(C)C)[nH]4)cc3)CC2)[nH]1)C(C)C	> 44400 pM
COC(=O)N[C@H](C(=O)N1CCC[C@H]1c1ncc(-c2ccc(-c3ccc4nc([C@@H]5CCCN5C(=O)[C@@H](NC(=O)OC)C(C)C)[nH]c4c3)cc2)[nH]1)C(C)C	37.2 pM
COC(=O)N[C@H](C(=O)N1CCC[C@H]1c1ncc(-c2cc3c(C)c4sc(-c5cnc([C@@H]6CCCN6C(=O)[C@@H](NC(=O)OC)C(C)C)[nH]5)cc4c(C)c3s2)[nH]1)C(C)C	16.6 pM
